Reference: patent publication US5674878A, “Anellated dihydropyridines and the use thereof for the production of pharmaceutical preparations” (Boehringer Ingelheim KG, priority 1992, dated 1997)

Each compound was assayed on unselective cation channels (UCC) (assay: Thapsigargin (0.1 μM) stimulated Ca^2+ entry through unselective cation channels in fura-2-charged RBL-hm 1 cells). Details: RBL-hm 1 cells, Thapsigargin (0.1 μM) stimulation, 10 μM test substance (Table 21).
Assay type: cell-based, rat
Excerpt: As a measurement of the cell activation or as a measurement of the inhibition thereof by UCC blockers, the kinetics of the cytoplasmic calcium ion concentration in fura-2-charged cells is quantified fluorometrically using the method described by GRYNKIEWICZ et al. (1985).
Consequently the Ca^2+ -stores are rapidly depleted. As described by J. PUTNEY (Calcium, 11, 611-624, 1990) the depletion of these stores constitutes the physiological stimulation for opening up unselective cation channels in the cell membrane. The result of this is a massive influx of Na^+ and Ca^2+ into the cell. Because of these properties, Thapsigargin is suitable as an indirect stimulator for agonist- and IP3-independent opening up of the unselective cation channels.
The functional endothelin antagonism of the substances according to the invention is mediated through a blockade of the unselective cation channels. Consequently, detection of a functional Thapsigargin-antagonism on RBL-hm1 cells is also a suitable screening method for functional endothelin antagonists.
For screening purposes, fura-2-charged adhesive RBL-hm 1 cells are stimulated with 0.1 μM Thapsigargin in a Ca^2+ -free incubation medium. After 4 minutes, extracellular Ca^2+ is restored to a concentration of 1.5 mM and, using the fura-2-fluorescence, the excessive increase in the cytoplasmic Ca^2+ -concentration caused by a massive transmembranal Ca^2+ -entry through unselective cation channels is recorded.
This entry is to be inhibited solely by unselective cation channel blockers in a dosage-dependent manner. Neither conventional calcium antagonists nor specific blockers of agonists which stimulate the IP3 -turnover are able to inhibit the transmembranal Ca^2+ -entry triggered indirectly by Thapsigargin. The compounds of the present invention are distinguished by their inhibition of UCC.
The fluorometric calcium measurement in the cytoplasm of individual adhering RBL-hm1 cells is carried out analogously to the method described by KUDO and OGURA (1986) for neuronal cells. An AXIOVERT 35 fluorescence microscope made by ZEISS is used in conjunction with an imaging system made by HAMAMATSU, consisting of the ICMS-image processing system, residual light camera with control unit and image intensifier DVS 3000.
The kinetics of the cytoplasmic Ca^2+ -concentration is recorded continuously as a concentration/time curve after the cell activation stimulated by Thapsigargin (0.1 μM). The curves of two activated cell cultures are compared in the presence and absence of 10 μM test substance. The area under these curves (area under the curve=AUC) is integrated and recorded as a measurement of cell activation. The inhibitory potency of the UCC-blockers tested is determined using the following equation: [formula] %H=the percentage inhibition of the calcium entry through unselective cation channels which is stimulated and inhibited by 10 μM of test substance.
AUCinh =area under the curve recorded in the presence of the stimulant plus 10 μM inhibitory test substance.
AUCcontrol =area under the curve which is recorded only after the addition of the stimulant.
The percentage inhibition of UCC after Thapsigargin stimulation (0.1 μM Thapsigargin) in RBL-hm 1 cells is given. The uniform concentration of the test substances is 10^-5 mol).

SMILES	% Inhibition
CCOc1ccccc1CCNC(=O)C(=C1NCCc2cc(OC)c(OC)cc21)c1ccccc1 (single isomer, unassigned) [K]	76.31%
COc1cc2c(cc1OC)C(=C(C(=O)NCCc1c(OC)cccc1OC)c1ccccc1)NCC2 (single isomer, unassigned) [L]	53.14%
COc1cc2c(cc1OC)C(C(C(=O)N(CCc1ccc(OC)c(OC)c1OC)CCc1ccc(OC)c(OC)c1OC)c1ccccc1)=NCC2 (centres unmarked) [38a (oxalate)]	52.64%
COc1cc2c(cc1OC)C(C(C(=O)N1CCCC1)c1ccccc1)=NCC2 (centres unmarked) [41 (Structure I)]	57.22%
COc1cc2c(cc1OC)C(C(C(=O)NCCc1ccc(OC)c(OC)c1OC)c1ccccc1)=NCC2 (centres unmarked) [B]	72.35%
COc1cc2c(cc1OC)C(C(C(=O)NCC(c1ccccc1)c1ccccc1)c1ccccc1)=NCC2 (centres unmarked) [C]	63.45%
COc1cc2c(cc1OC)C(C(C(=O)NCCc1cccc(C(F)(F)F)c1)c1ccccc1)=NCC2 (centres unmarked) [E]	81.89%
COc1cc2c(cc1OC)C(C(C(=O)NCc1c(F)cccc1OC)c1ccccc1)=NCC2 (centres unmarked) [F]	48.01%
COc1cc2c(cc1OC)C(=C(C(=O)NCCc1cccc(OC)c1OC)c1ccccc1)NCC2 [G]	57.52%
COc1cc2c(cc1OC)C(=C(C(=O)NC(C)COc1ccccc1)c1ccccc1)NCC2 (centres unmarked) [H]	57.06%
COc1cc2c(cc1OC)C(C(C(=O)NCCc1ccsc1)c1ccccc1)=NCC2 (centres unmarked) [O]	63.32%

Same assay, conditions: Table 13; 10 μM test substance

SMILES	% Inhib.
NS(=O)(=O)c1ccc(CCNC(=O)C(=C2NCCc3ccsc32)c2ccccc2)cc1	50.64%
COc1ccc(CCNC(=O)C(C2=NCCc3ccsc32)c2ccccc2)cc1 (centres unmarked)	67.73%
COc1ccc(CCNC(=O)C(=C2NCCc3ccsc32)c2ccccc2)cc1	65.50%
CCOc1ccccc1CCNC(=O)C(C1=NCCc2ccsc21)c1ccccc1 (centres unmarked)	24.03%
O=C(NCCc1cccc(C(F)(F)F)c1)C(C1=NCCc2ccsc21)c1ccccc1 (centres unmarked)	43.49%
O=C(NCCc1ccc(Cl)cc1)C(C1=NCCc2ccsc21)c1ccccc1 (centres unmarked)	15.26%
O=C(NCCc1ccc(Cl)cc1)C(=C1NCCc2ccsc21)c1ccccc1	26.54%
O=C(NCCc1ccsc1)C(C1=NCCc2ccsc21)c1ccccc1 (centres unmarked)	0.0%
O=C(NCCc1ccsc1)C(=C1NCCc2ccsc21)c1ccccc1	67.75%

Same assay, conditions: Table 14; 10 μM test substance

SMILES	% Inhib.
COc1cc2c(cc1OC)C(C(C(=O)NCCc1ccc(S(N)(=O)=O)cc1)c1ccccc1)=NCC2 (centres unmarked)	79.17%
COc1cc2c(cc1OC)C(C(C(=O)NCCCc1ccccc1)c1ccccc1)=NCC2 (centres unmarked)	73.55%
COc1cc2c(cc1OC)C(C(C(=O)NCCC1CCCN1C)c1ccccc1)=NCC2 (centres unmarked)	60.82%
COc1cc2c(cc1OC)C(C(C(=O)NC(C)CCc1ccccc1)c1ccccc1)=NCC2 (centres unmarked)	82.76%
COc1ccc(CNC(=O)C(C2=NCCc3cc(OC)c(OC)cc32)c2ccccc2)cc1OC (centres unmarked)	50.90%
COc1ccc(CNC(=O)C(C2=NCCc3cc(OC)c(OC)cc32)c2ccccc2)c(OC)c1 (centres unmarked)	56.20%
COc1cc2c(cc1OC)C(C(C(=O)N(CCCc1ccccc1)CCCc1ccccc1)c1ccccc1)=NCC2 (centres unmarked)	22.39%
COc1cc2c(cc1OC)C(C(C(=O)NCCc1ccc(C)cc1)c1ccccc1)=NCC2 (centres unmarked)	79.60%
COc1cc2c(cc1OC)C(C(C(=O)NCCc1ccc(Cl)c(OCc3ccccc3)c1)c1ccccc1)=NCC2 (centres unmarked)	36.71%
COc1cc2c(cc1OC)C(C(C(=O)NCC1CCCCC1)c1ccccc1)=NCC2 (centres unmarked)	30.87%

Same assay, conditions: Table 15; 10 μM test substance

SMILES	% Inhib.
COc1cc2c(cc1OC)C(C(C(=O)NCCCc1ccc(C(C)(C)C)cc1)C1CCCCC1)=NCC2 (centres unmarked)	84.43%

Same assay, conditions: Table 16; %inhibition, 10 μM test substance

SMILES	%
COc1ccc2c(c1)CCN=C2C(C(=O)NCCc1cccc(C(F)(F)F)c1)c1ccccc1 (centres unmarked)	30.41%
O=C(NCCc1cccc(C(F)(F)F)c1)C(C1=NCCc2cc(OCc3ccccc3)ccc21)c1ccccc1 (centres unmarked)	14.65%
Cc1cc2c(cc1OCc1ccccc1)CCN=C2C(C(=O)NCCc1cccc(C(F)(F)F)c1)c1ccccc1 (centres unmarked)	49.03%
COc1cc2c(cc1OCc1ccccc1)CCN=C2C(C(=O)NCCc1cccc(C(F)(F)F)c1)c1ccccc1 (centres unmarked)	31.8%
COc1cc2c(cc1OCc1ccccc1)C(C(C(=O)NCCc1cccc(C(F)(F)F)c1)c1ccccc1)=NCC2 (centres unmarked)	22.9%
COc1cc2c(cc1C)C(C(C(=O)N(Cc1ccccc1)Cc1ccccc1)c1ccccc1)=NCC2 (centres unmarked)	58.3%

Same assay, conditions: Table 17; 10 μM test substance

SMILES	percent inhibition of Ca2+ entry
COc1cc(N=[N+]=[N-])c(I)cc1CCNC(=O)C(C1=NCCc2cc(OC)c(OC)cc21)c1ccccc1 (centres unmarked)	36.95%
COc1ccccc1CCNC(=O)C(C1=NCCc2cc(OC)c(OC)cc21)c1ccccc1 (centres unmarked)	69.7%
COc1ccc(CCN(CC(C)C)C(=O)C(C2=NCCc3cc(OC)c(OC)cc32)c2ccccc2)cc1OC (centres unmarked)	12.82%
COc1cc2c(cc1OC)C(C(C(=O)NCCOc1cccc3ccccc13)c1ccccc1)=NCC2 (centres unmarked)	59%
COc1cc2c(cc1OC)C(C(C(=O)NC(C)COc1c(C)cccc1C)c1ccccc1)=NCC2 (centres unmarked)	72.18%
COc1cccc(OCCN2CCN(C(=O)C(C3=NCCc4cc(OC)c(OC)cc43)c3ccccc3)CC2)c1 (centres unmarked)	41.06%
COc1cc2c(cc1OC)C(C(C(=O)N1CCN(c3nc(N)c4cc(OC)c(OC)cc4n3)CC1)c1ccccc1)=NCC2 (centres unmarked)	7.77%
COc1cccc(OCCNC(=O)C(C2=NCCc3cc(OC)c(OC)cc32)c2ccccc2)c1 (centres unmarked)	45.26%
COc1ccc2c(c1)CCN(C(=O)C(C1=NCCc3cc(OC)c(OC)cc31)c1ccccc1)C2 (centres unmarked)	33.06%
COc1cc2c(cc1OC)C(C(C(=O)NC(C)(C)C)c1ccccc1)=NCC2 (centres unmarked)	81.60%
COc1cc2c(cc1OC)C(C(C(=O)NCC(C)(C)C)c1ccccc1)=NCC2 (centres unmarked)	81.51%
COc1cc2c(cc1OC)C(C(C(=O)NCC13CC4CC(CC(C4)C1)C3)c1ccccc1)=NCC2 (centres unmarked) [HNCH2-1-Adam.]	65.1%

Same assay, conditions: Table 18; 10 μM test substance

SMILES	percent inhibition of Ca2+ entry
COc1cc2c(cc1OC)C(C(C(=O)N(CCc1ccc(OC)c(OC)c1OC)CCc1ccc(OC)c(OC)c1OC)c1ccccc1OC)=NCC2 (centres unmarked)	41.8%
COc1cccc(C(C(=O)N(CCc2ccc(OC)c(OC)c2OC)CCc2ccc(OC)c(OC)c2OC)C2=NCCc3cc(OC)c(OC)cc32)c1 (centres unmarked)	24.3%
COc1ccc(C(C(=O)N(CCc2ccc(OC)c(OC)c2OC)CCc2ccc(OC)c(OC)c2OC)C2=NCCc3cc(OC)c(OC)cc32)cc1 (centres unmarked)	73.7%
COc1ccc(C(C(=O)N(CCc2ccc(OC)c(OC)c2OC)CCc2ccc(OC)c(OC)c2OC)C2=NCCc3cc(OC)c(OC)cc32)cc1OC (centres unmarked)	53.1%
COc1cc2c(cc1OC)C(C(C(=O)N(CCc1ccc(OC)c(OC)c1OC)CCc1ccc(OC)c(OC)c1OC)c1ccccc1C)=NCC2 (centres unmarked)	68.22%
COc1cc2c(cc1OC)C(C(C(=O)N(CCc1ccc(OC)c(OC)c1OC)CCc1ccc(OC)c(OC)c1OC)c1ccc(Cl)cc1Cl)=NCC2 (centres unmarked)	30.79%
COc1cc2c(cc1OC)C(C(C(=O)N(CCc1ccc(OC)c(OC)c1OC)CCc1ccc(OC)c(OC)c1OC)c1ccc(F)cc1)=NCC2 (centres unmarked)	54.30%
COc1cc2c(cc1OC)C(C(C(=O)N(CCc1ccc(OC)c(OC)c1OC)CCc1ccc(OC)c(OC)c1OC)c1ccc(N=[N+]=[N-])cc1)=NCC2 (centres unmarked)	61.3%
COc1cc2c(cc1OC)C(C(C(=O)N(CCc1ccc(OC)c(OC)c1OC)CCc1ccc(OC)c(OC)c1OC)c1ccc(N=[N+]=[N-])c(I)c1)=NCC2 (centres unmarked)	5.81%
COc1cc2c(cc1OC)C(C(CC1CCC1)C(=O)N(CCc1ccc(OC)c(OC)c1OC)CCc1ccc(OC)c(OC)c1OC)=NCC2 (centres unmarked)	56.0%

Same assay, conditions: Table 19; 10 μM test substance

SMILES	percent inhibition of Ca2+ entry
COc1ccccc1CCNC(=O)C(C1=NCCc2cc(OC)c(OC)cc21)c1ccc(N=[N+]=[N-])cc1 (centres unmarked)	50.58%

Same assay, conditions: Table 20; 10 μM test substance

SMILES	percent inhibition of Ca2+ entry
Cc1cc2c(cc1OCc1ccccc1)CCN=C2C(C(=O)NCCc1cccc(C(F)(F)F)c1)c1ccccc1 (centres unmarked)	49.03%
COc1cc2c(cc1OCc1ccccc1)CCN=C2C(C(=O)NCCC(C)(C)C)c1ccccc1 (centres unmarked) [NHCH2 CH2C(CH3)3]	61.85%
